Holding throughout (format): cell-based, human
One data set has as its system Glut4. Put plainly: Glut4 mRNA expression in adipocytes (real-time PCR). (Quantitative PCR measures a nucleic acid by following its amplification.)
The test system of another data set is PPARγ. Description: PPARγ mRNA expression in adipocytes (real-time PCR).
The next data set has as its system adipocytes. Put plainly: Triglyceride accumulation assay in adipocytes.
The test system of a further data set is aP2. Description: aP2 mRNA expression in adipocytes (real-time PCR). The settings on record: for AP2 mRNA: Table 17, differentiating adipocytes, control = treatment with ISIS 342673; for aP2 mRNA: differentiating adipocytes transfected with oligomeric compound, Table 75.
The next data set has as its system HSL. Description: HSL mRNA expression in adipocytes (real-time PCR).
Where [1] appears, read: Table 17, differentiating adipocytes, control = treatment with ISIS 342673.
Where [2] appears, read: differentiating adipocytes transfected with oligomeric compound, Table 75.

In the oligonucleotide strings, read from the 5' end, every base follows the letter of its sugar. An asterisk marks phosphorothioate; unmarked linkages are phosphodiester. Other units and linkages are bracketed, terminal groups are in braces. A string of capitals states the bases alone. e = 2'-O-(2-methoxyethyl) (MOE); [5mC] = 5-methylcytosine

Consider “328128 (antisense eA*eG*eT*eA*eA*e[5mC]*eT*eT*e[5mC]*eT*eT*eG*e[5mC]*eA*eG*eT*eT*eG*eG*eA) [compound 328128]”, for which the entries for the “GLUT4 mRNA” value in the data set with Glut4 (setting [1]) and in the data set on Glut4 (setting [2]) were 101.9 percentage of control and 73 percentage of untreated control (UTC), respectively. Further, the “PPAR gamma mRNA” value in the data set with PPARγ (setting [1]) is 84.0 percentage of control; with PPARγ (setting [2]), 86 percentage of untreated control (UTC). The “TG (triglyceride accumulation)” value in the data set with adipocytes (setting [1]) is listed as 98.7 percentage of control; in the data set with adipocytes (setting [2]), 61 percentage of untreated control (UTC). The “AP2 mRNA” value with aP2 was 100.7 percentage of control. Moreover, the “aP2 mRNA” value with aP2 is 90 percentage of untreated control (UTC). Moreover, the results for the “HSL mRNA” value in the data set with HSL (setting [1]) and in the data set with HSL (setting [2]) were 94.1 percentage of control and 72 percentage of untreated control (UTC), respectively.

With “328130 (antisense eA*e[5mC]*e[5mC]*eT*e[5mC]*eA*eG*eG*eT*eG*eG*eT*eT*eG*eA*eA*eG*eG*eA*eG*eA) [compound 328130]”, the “GLUT4 mRNA” value was 83.8 percentage of control in the data set on Glut4 (setting [1]) and 55 percentage of untreated control (UTC) in the data set with Glut4 (setting [2]). In addition, the results for the “PPAR gamma mRNA” value with PPARγ (setting [1]) and in the data set on PPARγ (setting [2]) were 99.4 percentage of control and 77 percentage of untreated control (UTC), respectively. Also, the “TG (triglyceride accumulation)” value is on record as 122.4 percentage of control in the data set with adipocytes (setting [1]) and 91 percentage of untreated control (UTC) with adipocytes (setting [2]). Moreover, the “AP2 mRNA” value in the data set on aP2 was 86.6 percentage of control. Besides, in the data set on aP2, the “aP2 mRNA” value was 72 percentage of untreated control (UTC). Moreover, the entries for the “HSL mRNA” value in the data set on HSL (setting [1]) and in the data set with HSL (setting [2]) were 76.5 percentage of control and 64 percentage of untreated control (UTC), respectively.

On to “346691 (GCAGAAGCAUUUCCACACAC; all 2'-MOE, all phosphorothioate, methylation of C and T or U not given here) [compound 346691]”, for which, in the data set on Glut4 (setting [2]), the “GLUT4 mRNA” value is on record as 64 percentage of untreated control (UTC). The “PPAR gamma mRNA” value with PPARγ (setting [2]) is listed as 79 percentage of untreated control (UTC). Also, the “TG (triglyceride accumulation)” value in the data set on adipocytes (setting [2]) is 56 percentage of untreated control (UTC). The “aP2 mRNA” value with aP2 is listed as 69 percentage of untreated control (UTC). The “HSL mRNA” value with HSL (setting [2]) is 69 percentage of untreated control (UTC).

On to “344343 (AUGCCCUUUCAUCAUUGCACUG; anti-miR; all 2'-MOE, all phosphorothioate, methylation of C and T or U not given here) [compound 344343]”, for which, in the data set on Glut4 (setting [2]), the “GLUT4 mRNA” value is 4 percentage of untreated control (UTC). In addition, the “PPAR gamma mRNA” value in the data set on PPARγ (setting [2]) is recorded as 30 percentage of untreated control (UTC). In addition, in the data set with adipocytes (setting [2]), the “TG (triglyceride accumulation)” value is on record as 32 percentage of untreated control (UTC). Further, the “aP2 mRNA” value in the data set on aP2 was 25 percentage of untreated control (UTC). Besides, in the data set on HSL (setting [2]), the “HSL mRNA” value is recorded as 22 percentage of untreated control (UTC).

Consider “344611 (ACAUUUUUCGUUAUUGCUCUUGA; anti-miR; all 2'-MOE, all phosphorothioate, methylation of C and T or U not given here) [compound 344611]”, for which the “GLUT4 mRNA” value with Glut4 (setting [2]) is 3 percentage of untreated control (UTC). Also, in the data set on PPARγ (setting [2]), the “PPAR gamma mRNA” value is on record as 34 percentage of untreated control (UTC). The “TG (triglyceride accumulation)” value with adipocytes (setting [2]) is listed as 43 percentage of untreated control (UTC). In the data set on aP2, the “aP2 mRNA” value is given as 34 percentage of untreated control (UTC). Also, in the data set on HSL (setting [2]), the “HSL mRNA” value is on record as 31 percentage of untreated control (UTC).

For “328092 (antisense eG*eG*eT*eA*eG*eG*eT*eG*eG*eA*eA*eT*eA*e[5mC]*eT*eA*eT*eA*eA*e[5mC]*eA) [compound 328092]”, in the data set on Glut4 (setting [2]), the “GLUT4 mRNA” value was 78 percentage of untreated control (UTC). For the same substance, the “PPAR gamma mRNA” value in the data set on PPARγ (setting [2]) was 86 percentage of untreated control (UTC). Also, in the data set with adipocytes (setting [2]), the “TG (triglyceride accumulation)” value is listed as 134 percentage of untreated control (UTC). The “aP2 mRNA” value in the data set on aP2 was 74 percentage of untreated control (UTC). For the same substance, the “HSL mRNA” value in the data set on HSL (setting [2]) was 80 percentage of untreated control (UTC).

With “344617 (GACGGGUGCGAUUUCUGUGUGAGA; all 2'-MOE, all phosphorothioate, methylation of C and T or U not given here) [compound 344617]”, the “GLUT4 mRNA” value in the data set on Glut4 (setting [2]) was 42 percentage of untreated control (UTC). For the same substance, in the data set on PPARγ (setting [2]), the “PPAR gamma mRNA” value is 72 percentage of untreated control (UTC). Moreover, in the data set on adipocytes (setting [2]), the “TG (triglyceride accumulation)” value was 52 percentage of untreated control (UTC). The “aP2 mRNA” value in the data set on aP2 is reported as 59 percentage of untreated control (UTC). Moreover, the “HSL mRNA” value in the data set on HSL (setting [2]) is 55 percentage of untreated control (UTC).

Take “346692 (UAAACGGAACCACUAGUGACUUG; all 2'-MOE, all phosphorothioate, methylation of C and T or U not given here) [compound 346692]”: in the data set on Glut4 (setting [2]), the “GLUT4 mRNA” value is on record as 11 percentage of untreated control (UTC). The “PPAR gamma mRNA” value with PPARγ (setting [2]) is on record as 28 percentage of untreated control (UTC). Besides, in the data set with adipocytes (setting [2]), the “TG (triglyceride accumulation)” value was 35 percentage of untreated control (UTC). Also, the “aP2 mRNA” value in the data set with aP2 is listed as 26 percentage of untreated control (UTC). The “HSL mRNA” value in the data set with HSL (setting [2]) is on record as 18 percentage of untreated control (UTC).

In the case of “328120 (antisense eA*eA*eG*eA*eA*eG*eG*eA*eA*eG*eG*eA*eG*eG*eG*eA*eA*eA*eG*e[5mC]*eA) [compound 328120]”, the “GLUT4 mRNA” value in the data set on Glut4 (setting [1]) was 94.8 percentage of control; with Glut4 (setting [2]), 68 percentage of untreated control (UTC). The results for the “PPAR gamma mRNA” value with PPARγ (setting [1]) and in the data set with PPARγ (setting [2]) were 70.5 percentage of control and 73 percentage of untreated control (UTC), respectively. For the same substance, the “TG (triglyceride accumulation)” value in the data set with adipocytes (setting [1]) was 82.7 percentage of control; with adipocytes (setting [2]) it was 80 percentage of untreated control (UTC). In addition, the “AP2 mRNA” value with aP2 was 81.0 percentage of control. For the same substance, the “aP2 mRNA” value with aP2 was 80 percentage of untreated control (UTC). In addition, the “HSL mRNA” value is given as 77.7 percentage of control in the data set on HSL (setting [1]) and 67 percentage of untreated control (UTC) with HSL (setting [2]).

In the case of “340352 (antisense CACAAGAUCGGAUCUACGGGUU; all 2'-MOE, all phosphorothioate, methylation of C and T or U not given here) [compound 340352]”, in the data set on Glut4 (setting [2]), the “GLUT4 mRNA” value is 97 percentage of untreated control (UTC). In addition, the “PPAR gamma mRNA” value with PPARγ (setting [2]) is 102 percentage of untreated control (UTC). Also, the “TG (triglyceride accumulation)” value in the data set with adipocytes (setting [2]) is 110 percentage of untreated control (UTC). Moreover, in the data set on aP2, the “aP2 mRNA” value is 107 percentage of untreated control (UTC). In the data set on HSL (setting [2]), the “HSL mRNA” value is given as 123 percentage of untreated control (UTC).

Consider “341795 (antisense AACCAAUGUGCAGACUACUGUA; all 2'-MOE, all phosphorothioate, methylation of C and T or U not given here) [compound 341795]”, for which the “GLUT4 mRNA” value with Glut4 (setting [2]) is on record as 55 percentage of untreated control (UTC). Besides, the “PPAR gamma mRNA” value in the data set on PPARγ (setting [2]) is reported as 74 percentage of untreated control (UTC). Further, in the data set with adipocytes (setting [2]), the “TG (triglyceride accumulation)” value was 57 percentage of untreated control (UTC). Moreover, in the data set with aP2, the “aP2 mRNA” value was 76 percentage of untreated control (UTC). Moreover, in the data set with HSL (setting [2]), the “HSL mRNA” value was 74 percentage of untreated control (UTC).

Source of the values: patent US8178506B2, “Oligomeric compounds and compositions for use in modulation of small non-coding RNAs” (Regulus Therapeutics Inc., priority 2003, dated 2012).
